This note sets out measurements from patent US20040047829A1, “Fluids for sanitizing the teats of dairy animals” (priority 2002, published 2004).

The nature of this series: Stability of ADBAC solutions. It counts as physicochemical. From the text: The principal antibacterial ingredient in these formulations is alkyl dimethyl benzyl ammonium chloride (ADBAC). ADBAC is effective in killing the bacteria associated with mastitis in milking animals, and is not an oxidant. It also has a slight detergent action and so assists in cleaning dirt off of the animal's teats. […] It is inexpensive and is obtained commercially in a convenient dry form under the trade name TIMSEN. In TIMSEN, urea is used as a carrier and a buffer in a weight ratio of about three parts urea to two parts ADBAC by weight. Urea will be in the sanitizing fluid when TIMSEN is used as the stock source for ADBAC, however, it will be understood that urea is not an active ingredient in these formulations.

On to “alkyl dimethyl benzyl ammonium chloride [ADBAC]”, for which the stability of solutions entry is recorded as “stable for over a year”.
